# Experimental data reported in patent publication US20040242700A1 (priority 2001, published 2004).
# Where two headings read alike, the source gives them in different places.
# Tests used:
# [1] = test system: mucosal immunoglobulin IgG; type: in vivo, mice
# [2] = test system: mucosal immunoglobulin IgA; type: in vivo, mice
# SP-A [3] = test system: SP-A; design: species or system mice; settings: mouse, in vivo, ip
# trypsin-type protease [4] = type: in vivo, mice; settings: 4th day
# TNF-α = type: in vivo, mice; settings: 3rd to 5th day of treatment, not always observed
# MPI [5] = type: in vivo, mice; settings: administration of ambroxol
# SP-A [6] = type: in vivo, mice; settings: administration of ambroxol
# IFN-γ = type: in vivo, mice
# IL-12 = type: in vivo, mice
# trypsin-type protease [7] = test system: trypsin-type protease; design: species or system mice; settings: mouse, in vivo, ip
# [8] = test system: mucosal immunoglobulin IgA; type: in vivo, mice; remark: listed apart in the source
# [9] = test system: inflammatory cytokines such as TNF-α, IL-2, IL-1, IL-4, IL-13 and IFN-γ; settings: literature reports; cited from earlier work
# IL-6 = type: in vivo, mice
# [10] = test system: mucosal immunoglobulin IgG; type: in vivo, mice; remark: listed apart in the source
# MPI [11] = type: in vivo, mice
smiles,measurement,setting,value
"Nc1c(Br)cc(Br)cc1CN[C@H]1CC[C@H](O)CC1 [ambroxol, 2-amino-3,5-dibromo-N-[trans-4-hydroxycyclohexyl] benzyl amine]",IgG concentration relative to the basic concentration of IgG,"[1]; 10 mg/kg/day, 6th day",about 16 times
same,IgG concentration relative to the basic concentration of IgG,"[1]; 30 mg/kg/day, 5th day",~15 times
same,IgG concentration relative to the maximum concentration induced through the viral infection,[1]; treatment with ambroxol,~1.45 times
same,IgA level relative to the basic concentration of IgA,"[2]; 10 mg/kg/day, 7th day",about 600 times
same,IgA level relative to the basic concentration of IgA,"[2]; 30 mg/kg/day, 5th day",~700 times
same,IgA concentration relative to the maximum concentration induced through the viral infection,[2]; treatment with ambroxol,1.5-1.8 times
same,day on which the SP-A level reached the peak value,SP-A [3]; 10 mg/kg/day,5 days
same,day on which the SP-A level reached the maximum value,SP-A [3]; 30 mg/kg/day,4 days
same,peak trypsin-type protease level relative to un-infected animals,trypsin-type protease [4]; 10 mg/kg/day i.p.,up to 2.2 times
same,peak trypsin-type protease level relative to un-infected animals,trypsin-type protease [4]; 30 mg/kg/day i.p.,≤ 2.4 times
same,effect on TNF-α secretion in BALF,TNF-α,secretion-inhibitory effects
same,secretion of MPI,MPI [5],lightly promoted
same,secretion of SP-A,SP-A [6],lightly promoted
same,INF-γ,"IFN-γ; 10 mg/kg/day i.p., day 1",9.4 ± 2.4 pg/mL
same,INF-γ,"IFN-γ; 10 mg/kg/day i.p., day 2",9.5 ± 1.8 pg/mL
same,INF-γ,"IFN-γ; 10 mg/kg/day i.p., day 3",2.8 ± 0.9 pg/mL
same,IFN-γ,"IFN-γ; 10 mg/kg/day i.p., day 4",5.3 ± 2.8 pg/mL
same,IFN-γ,"IFN-γ; 10 mg/kg/day i.p., day 5",14.7 ± 5.3 pg/mL
same,IFN-γ,"IFN-γ; 10 mg/kg/day i.p., day 6",39.4 ± 18.6 pg/mL
same,IFN-γ,"IFN-γ; 10 mg/kg/day i.p., day 7",4.0 ± 1.6 pg/mL
same,INF-γ,"IFN-γ; 30 mg/kg/day i.p., day 1",10.4 ± 2.7 pg/mL
same,INF-γ,"IFN-γ; 30 mg/kg/day i.p., day 2",9.8 ± 2.4 pg/mL
same,INF-γ,"IFN-γ; 30 mg/kg/day i.p., day 3",4.0 ± 1.1 pg/mL
same,IFN-γ,"IFN-γ; 30 mg/kg/day i.p., day 4",10.2 ± 5.5 pg/mL
same,IFN-γ,"IFN-γ; 30 mg/kg/day i.p., day 5",32.8 ± 11.1 pg/mL
same,IFN-γ,"IFN-γ; 30 mg/kg/day i.p., day 6",61.8 ± 21.7 pg/mL
same,IFN-γ,"IFN-γ; 30 mg/kg/day i.p., day 7",5.1 ± 1.8 pg/mL
same,effect on INF-γ secretion in BALF,"IFN-γ; 1st day of treatment, not always observed",secretion-inhibitory effects
same,IL-12,"IL-12; 10 mg/kg/day i.p., day 1",27.3 ± 7.1 pg/mL
same,IL-12,"IL-12; 10 mg/kg/day i.p., day 2",68.5 ± 12.9 pg/mL
same,IL-12,"IL-12; 10 mg/kg/day i.p., day 3",133.3 ± 17.2 pg/mL
same,IL-12,"IL-12; 10 mg/kg/day i.p., day 4",119.5 ± 15.8 pg/mL
same,IL-12,"IL-12; 10 mg/kg/day i.p., day 5",57.4 ± 16.0 pg/mL
same,IL-12,"IL-12; 10 mg/kg/day i.p., day 6",29.4 ± 6.2 pg/mL
same,IL-12,"IL-12; 10 mg/kg/day i.p., day 7",62.5 ± 27.7 pg/mL
same,IL-12,"IL-12; 30 mg/kg/day i.p., day 1",22.4 ± 4.1 pg/mL
same,IL-12,"IL-12; 30 mg/kg/day i.p., day 2",108.2 ± 33.3 pg/mL
same,IL-12,"IL-12; 30 mg/kg/day i.p., day 3",141.5 ± 15.1 pg/mL
same,IL-12,"IL-12; 30 mg/kg/day i.p., day 4",118.6 ± 11.4 pg/mL
same,IL-12,"IL-12; 30 mg/kg/day i.p., day 5",62.4 ± 13.6 pg/mL
same,IL-12,"IL-12; 30 mg/kg/day i.p., day 6",44.3 ± 29.1 pg/mL
same,IL-12,"IL-12; 30 mg/kg/day i.p., day 7",95.8 ± 52.2 pg/mL
same,day on which the trypsin-type protease level reached the peak value,trypsin-type protease [7]; 10 mg/kg/day,5 days
same,day on which the trypsin-type protease level reached the peak level,trypsin-type protease [7]; 30 mg/kg/day,4 days
same,IgA concentration relative to the group free of treatment,"[8]; 10 mg/kg/day, 7th day",about 10 times
same,IgA concentration relative to the group free of treatment,"[8]; 30 mg/kg/day, 5th day",about 10 times
same,IgA concentration relative to the basic concentration,[8]; dose not stated,about 10 times
same,"in vitro release of inflammatory cytokines such as TNF-α, IL-2, IL-1, IL-4, IL-13 and IFN-γ",[9],inhibits
same,IL-6,"IL-6; 10 mg/kg/day i.p., day 1",174.8 ± 35.0 pg/mL
same,IL-6,"IL-6; 10 mg/kg/day i.p., day 2",191.8 ± 51.9 pg/mL
same,IL-6,"IL-6; 10 mg/kg/day i.p., day 3",280.2 ± 54.2 pg/mL
same,IL-6,"IL-6; 10 mg/kg/day i.p., day 4",339.2 ± 57.1 pg/mL
same,IL-6,"IL-6; 10 mg/kg/day i.p., day 5",540.9 ± 84.2 pg/mL
same,IL-6,"IL-6; 10 mg/kg/day i.p., day 6",503.23 ± 61.4 pg/mL
same,IL-6,"IL-6; 10 mg/kg/day i.p., day 7",73.7 ± 14.7 pg/mL
same,IL-6,"IL-6; 30 mg/kg/day i.p., day 1",170.8 ± 28.9 pg/mL
same,IL-6,"IL-6; 30 mg/kg/day i.p., day 2",186.7 ± 19.6 pg/mL
same,IL-6,"IL-6; 30 mg/kg/day i.p., day 3",326.2 ± 44.9 pg/mL
same,IL-6,"IL-6; 30 mg/kg/day i.p., day 4",433.5 ± 101.9 pg/mL
same,IL-6,"IL-6; 30 mg/kg/day i.p., day 5",478.2 ± 86.4 pg/mL
same,IL-6,"IL-6; 30 mg/kg/day i.p., day 6",817.0 ± 168.0 pg/mL
same,IL-6,"IL-6; 30 mg/kg/day i.p., day 7",80.0 ± 17.5 pg/mL
same,effect on the level of IL-6 in BALF,IL-6; 4th and 6th days of treatment,increased
same,IgG concentration relative to the group free of treatment,"[10]; 10 mg/kg/day, 7th day",about 1.2 time
same,IgG concentration relative to the group free of treatment,"[10]; 30 mg/kg/day, 6th day",about 1.2 time
same,IgG concentration relative to the basic concentration,[10]; dose not stated,1.2 times
same,MPI concentration relative to that induced by the viral infection,"MPI [11]; […], treatment with ambroxol",1.9 times
same,peak MPI concentration relative to un-infected animals,"MPI [11]; mouse, in vivo",8.4 times
same,day on which the MPI level reached the peak value,"MPI [11]; mouse, in vivo, ip, 10 mg/kg/day",5 days
same,day on which the MPI level reached the maximum value,"MPI [11]; mouse, in vivo, ip, 30 mg/kg/day",4 days
